Results as given in ChEMBL document CHEMBL3044811, “Efficacy of grain protectants against four psocid species on maize, rice and wheat” (2009).
Calls of active or inactive are those of the source. The calls are words filed in the database; no cut-off is given here.

Assays:
[1] = tested on: Liposcelis paeta; experiment: Insecticidal activity against Liposcelis paeta in compound pre-treated maize grains assessed as mortality at 1.6 ppm after 14 days (reference value: 14.1 +/-4.1%); type: functional
[2] = tested on: Liposcelis paeta; experiment: Insecticidal activity against Liposcelis paeta in compound pre-treated wheat grains assessed as mortality at 1.6 ppm after 14 days (reference value: 5.6 +/-1.8%); type: functional
[3] = tested on: Liposcelis bostrychophila; experiment: Insecticidal activity against Liposcelis bostrychophila (booklice) in compound pre-treated rice grains assessed as effect on progeny production at 2.2 ppm after 30 days; type: functional, organism-based
[4] = tested on: Liposcelis bostrychophila; experiment: Insecticidal activity against Liposcelis bostrychophila (booklice) in compound pre-treated rice grains assessed as mortality at 2.2 ppm after 14 days (reference value: 9.7 +/-2.4%); type: functional
[5] = tested on: Lepinotus reticulatus; experiment: Insecticidal activity against Lepinotus reticulatus in compound pre-treated wheat grains assessed as mortality at 1.6 ppm after 7 days (reference value: 10.0 +/-5.3%); type: functional
[6] = tested on: Lepinotus reticulatus; experiment: Insecticidal activity against Lepinotus reticulatus in compound pre-treated maize grains assessed as mortality at 1.6 ppm after 7 days (reference value: 34.4 +/-11.4%); type: functional
[7] = tested on: Liposcelis entomophila; experiment: Insecticidal activity against Liposcelis entomophila in compound pre-treated rice grains assessed as effect on progeny production at 2.2 ppm after 30 days; type: functional, organism-based
[8] = tested on: Liposcelis entomophila; experiment: Insecticidal activity against Liposcelis entomophila in compound pre-treated maize grains assessed as mortality at 1.6 ppm after 14 days (reference value: 14.4 +/-4.1%); type: functional
[9] = tested on: Lepinotus reticulatus; experiment: Insecticidal activity against Lepinotus reticulatus in compound pre-treated rice grains assessed as mortality at 2.2 ppm after 7 days (reference value: 6.8 +/-2.4%); type: functional
[10] = tested on: Liposcelis bostrychophila; experiment: Insecticidal activity against Liposcelis bostrychophila (booklice) in compound pre-treated maize grains assessed as mortality at 1.6 ppm after 7 days (reference value: 8.9 +/-2.6%); type: functional
[11] = tested on: Liposcelis entomophila; experiment: Insecticidal activity against Liposcelis entomophila in compound pre-treated maize grains assessed as mortality at 1.6 ppm after 7 days (reference value: 15.6 +/-6.9%); type: functional
[12] = tested on: Liposcelis bostrychophila; experiment: Insecticidal activity against Liposcelis bostrychophila (booklice) in compound pre-treated wheat grains assessed as mortality at 1.6 ppm after 7 days (reference value: 3.3 +/-1.7%); type: functional
[13] = tested on: Liposcelis entomophila; experiment: Insecticidal activity against Liposcelis entomophila in compound pre-treated wheat grains assessed as mortality at 1.6 ppm after 7 days (reference value: 5.6 +/-2.9%); type: functional
[14] = tested on: Liposcelis paeta; experiment: Insecticidal activity against Liposcelis paeta in compound pret-reated wheat grains assessed as mortality at 1.6 ppm after 7 days (reference value: 7.8 +/-3.2%); type: functional; details: 168 h
[15] = tested on: Liposcelis entomophila; experiment: Insecticidal activity against Liposcelis entomophila in compound pre-treated maize grains assessed as decrease in progeny production at 1.6 ppm after 30 days; type: functional, organism-based
[16] = tested on: Liposcelis entomophila; experiment: Insecticidal activity against Liposcelis entomophila in compound pre-treated wheat grains assessed as decrease in progeny production at 1.6 ppm after 30 days; type: functional, organism-based
[17] = tested on: Liposcelis entomophila; experiment: Insecticidal activity against Liposcelis entomophila in compound pre-treated wheat grains assessed as mortality at 1.6 ppm after 14 days (reference value: 13.3 +/-4.7%); type: functional
[18] = tested on: Liposcelis entomophila; experiment: Insecticidal activity against Liposcelis entomophila in compound pre-treated rice grains assessed as mortality at 2.2 ppm after 14 days (reference value: 10.0 +/-4.7%); type: functional
[19] = tested on: Lepinotus reticulatus; experiment: Insecticidal activity against Lepinotus reticulatus in compound pre-treated maize grains assessed as mortality at 1.6 ppm after 14 days (reference value: 61.1 +/-11.9%); type: functional
[20] = tested on: Lepinotus reticulatus; experiment: Insecticidal activity against Lepinotus reticulatus in compound pre-treated rice grains assessed as mortality at 2.2 ppm after 14 days (reference value: 15.5 +/-4.1%); type: functional
[21] = tested on: Liposcelis bostrychophila; experiment: Insecticidal activity against Liposcelis bostrychophila (booklice) in compound pre-treated wheat grains assessed as mortality at 1.6 ppm after 14 days (reference value: 6.8 +/-3.3%); type: functional
[22] = tested on: Lepinotus reticulatus; experiment: Insecticidal activity against Lepinotus reticulatus in compound pre-treated rice grains assessed as effect on progeny production at 2.2 ppm after 30 days; type: functional, organism-based
[23] = tested on: Liposcelis bostrychophila; experiment: Insecticidal activity against Liposcelis bostrychophila (booklice) in compound pre-treated rice grains assessed as mortality at 2.2 ppm after 7 days (reference value: 8.9 +/-4.5%); type: functional
[24] = tested on: Liposcelis bostrychophila; experiment: Insecticidal activity against Liposcelis bostrychophila (booklice) in compound pre-treated maize grains assessed as mortality at 1.6 ppm after 14 days (reference value: 13.5 +/-5.3%); type: functional
[25] = tested on: Liposcelis bostrychophila; experiment: Insecticidal activity against Liposcelis bostrychophila (booklice) in compound pre-treated wheat grains assessed as effect on progeny production at 1.6 ppm after 30 days; type: functional, organism-based
[26] = tested on: Liposcelis paeta; experiment: Insecticidal activity against Liposcelis paeta in compound pre-treated rice grains assessed as mortality at 2.2 ppm after 7 days (reference value: 3.3 +/-1.7%); type: functional
[27] = tested on: Liposcelis bostrychophila; experiment: Insecticidal activity against Liposcelis bostrychophila (booklice) in compound pre-treated maize grains assessed as decrease in progeny production at 1.6 ppm after 30 days; type: functional, organism-based
[28] = tested on: Liposcelis paeta; experiment: Insecticidal activity against Liposcelis paeta in compound pre-treated rice grains assessed as mortality at 2.2 ppm after 14 days (reference value: 3.4 +/-1.6%); type: functional
[29] = tested on: Liposcelis paeta; experiment: Insecticidal activity against Liposcelis paeta in compound pret-reated maize grains assessed as mortality at 1.6 ppm after 7 days (reference value: 13.3 +/-3.3%); type: functional; details: 168 h
[30] = tested on: Lepinotus reticulatus; experiment: Insecticidal activity against Lepinotus reticulatus in compound pre-treated wheat grains assessed as decrease in progeny production at 1.6 ppm after 30 days; type: functional, organism-based
[31] = tested on: Lepinotus reticulatus; experiment: Insecticidal activity against Lepinotus reticulatus in compound pre-treated wheat grains assessed as mortality at 1.6 ppm after 14 days (reference value: 21.1 +/-7.4%); type: functional
[32] = tested on: Liposcelis entomophila; experiment: Insecticidal activity against Liposcelis entomophila in compound pre-treated rice grains assessed as mortality at 2.2 ppm after 7 days (reference value: 3.3 +/-2.6%); type: functional
[33] = tested on: Lepinotus reticulatus; experiment: Insecticidal activity against Lepinotus reticulatus in compound pre-treated maize grains assessed as decrease in progeny production at 1.6 ppm after 30 days; type: functional, organism-based

C=C/C=C\CC1=C(C)[C@@H](OC(=O)[C@@H]2[C@@H](/C=C(\C)C(=O)OC)C2(C)C)CC1=O [PYRETHRIN]
mortality at 1.6 ppm [1]: 18.9% | mortality at 1.6 ppm [2]: 14.4% | inhibition [3]: inactive | mortality at 2.2 ppm [4]: 26.5% | mortality at 1.6 ppm [5]: 41.1% | mortality at 1.6 ppm [6]: 57.8% | inhibition [7]: inactive | mortality at 1.6 ppm [8]: 60% | mortality at 2.2 ppm [9]: 23.4% | mortality at 1.6 ppm [10]: 18.9% | mortality at 1.6 ppm [11]: 17.8% | mortality at 1.6 ppm [12]: 17.8% | mortality at 1.6 ppm [13]: 47.8% | mortality at 1.6 ppm [14]: 14.5% | inhibition [15]: Active | inhibition [16]: Active | mortality at 1.6 ppm [17]: 55.6% | mortality at 2.2 ppm [18]: 16.7% | mortality at 1.6 ppm [19]: 86.7% | mortality at 2.2 ppm [20]: 14.3% | mortality at 1.6 ppm [21]: 30% | inhibition [22]: inactive | mortality at 2.2 ppm [23]: 23.3% | mortality at 1.6 ppm [24]: 23.3% | inhibition [25]: inactive | mortality at 2.2 ppm [26]: 15.7% | inhibition [27]: Active | mortality at 2.2 ppm [28]: 31.1% | mortality at 1.6 ppm [29]: 10% | inhibition [30]: Active | mortality at 1.6 ppm [31]: 65.7% | mortality at 2.2 ppm [32]: 8.9% | inhibition [33]: Active
